According to ChEMBL document CHEMBL4229324, “Synthesis and antitumor activities of 1,2,3-triazines and their benzo- and heterofused derivatives” (Eur J Med Chem, 2017):
pIC50: −log10 of the molar value. ≈ marks a conversion by molar mass, not a printed value.

Legend:
[1] = target: Ribosomal protein S6 kinase beta-1 (Homo sapiens, UniProt P23443, T412E); experiment: Inhibition of N-terminal 6His-tagged human recombinant p70S6K T412E mutant (1 to 421 residues) in Sf21 insect cells using FITC-AHA-AKRRRLSSLRA-OH substrate peptide incubated for 90 mins
[2] = Acute toxicity in white mongrel mouse administered as single intraperitoneal injection; format: organism-based; settings: in vivo, ip
B16-F10 = experiment: Antiproliferative activity against mouse B16F10 cells incubated for 4 days by MTT assay; format: functional, cell-based; settings: B16-F10, 96 h
PC-3 = experiment: Antiproliferative activity against human PC3 cells incubated for 4 days by MTT assay; format: functional, cell-based; settings: PC-3, 96 h
[3] = test system: Lewis lung carcinoma cell line; experiment: Antiproliferative activity against mouse LL/2 cells incubated for 4 days by MTT assay; format: functional, cell-based; settings: 96 h
DU-145 = experiment: Antiproliferative activity against human DU145 cells incubated for 4 days by MTT assay; format: functional, cell-based; settings: DU-145, 96 h
Homo sapiens = species on record: Homo sapiens; experiment: Antiproliferative activity against HMVEC incubated for 4 days by MTT assay; format: functional
MDA-MB-435 = experiment: Antiproliferative activity against human MDA-MB-435 cells assessed as inhibition of cell proliferation incubated for 48 hrs by cell-titer-Glo reagent based assay; format: functional; settings: MDA-MB-435, 48 h
Caspase = experiment: Activation of caspase cascade in human T47D cells using N-(Ac-DEVD)-N'-ethoxycarbonyl-R110 fluorogenic substrate incubated for 48 hrs by fluorescent plate reader based assay; format: cell-based
T47D = experiment: Antiproliferative activity against human T47D cells assessed as inhibition of cell proliferation incubated for 48 hrs by cell-titer-Glo reagent based assay; format: functional
HT-29 = experiment: Antiproliferative activity against human HT-29 cells assessed as inhibition of cell proliferation incubated for 48 hrs by cell-titer-Glo reagent based assay; format: functional; settings: HT-29, 48 h
NCI-H1299 = experiment: Antiproliferative activity against human NCI-H1299 cells assessed as inhibition of cell proliferation incubated for 48 hrs by cell-titer-Glo reagent based assay; format: functional; settings: NCI-H1299, 48 h
MX1 = experiment: Antiproliferative activity against human MX1 cells assessed as inhibition of cell proliferation incubated for 48 hrs by cell-titer-Glo reagent based assay; format: functional; settings: MX1, 48 h
[4] = target: Epidermal growth factor receptor (Homo sapiens, UniProt P00533); experiment: Inhibition of EGFR (unknown origin)
MCF7 [5] = experiment: Antiproliferative activity against human MCF7 cells assessed as cell survival at 25 ug/ml relative to untreated control; format: functional; settings: read-out: Survival
[6] = target: T1, Tyrosine-protein kinase JAK3 (Homo sapiens, UniProt P52333); experiment: Inhibition of JAK3 (unknown origin)
T1 sequence (P52333 whole entry): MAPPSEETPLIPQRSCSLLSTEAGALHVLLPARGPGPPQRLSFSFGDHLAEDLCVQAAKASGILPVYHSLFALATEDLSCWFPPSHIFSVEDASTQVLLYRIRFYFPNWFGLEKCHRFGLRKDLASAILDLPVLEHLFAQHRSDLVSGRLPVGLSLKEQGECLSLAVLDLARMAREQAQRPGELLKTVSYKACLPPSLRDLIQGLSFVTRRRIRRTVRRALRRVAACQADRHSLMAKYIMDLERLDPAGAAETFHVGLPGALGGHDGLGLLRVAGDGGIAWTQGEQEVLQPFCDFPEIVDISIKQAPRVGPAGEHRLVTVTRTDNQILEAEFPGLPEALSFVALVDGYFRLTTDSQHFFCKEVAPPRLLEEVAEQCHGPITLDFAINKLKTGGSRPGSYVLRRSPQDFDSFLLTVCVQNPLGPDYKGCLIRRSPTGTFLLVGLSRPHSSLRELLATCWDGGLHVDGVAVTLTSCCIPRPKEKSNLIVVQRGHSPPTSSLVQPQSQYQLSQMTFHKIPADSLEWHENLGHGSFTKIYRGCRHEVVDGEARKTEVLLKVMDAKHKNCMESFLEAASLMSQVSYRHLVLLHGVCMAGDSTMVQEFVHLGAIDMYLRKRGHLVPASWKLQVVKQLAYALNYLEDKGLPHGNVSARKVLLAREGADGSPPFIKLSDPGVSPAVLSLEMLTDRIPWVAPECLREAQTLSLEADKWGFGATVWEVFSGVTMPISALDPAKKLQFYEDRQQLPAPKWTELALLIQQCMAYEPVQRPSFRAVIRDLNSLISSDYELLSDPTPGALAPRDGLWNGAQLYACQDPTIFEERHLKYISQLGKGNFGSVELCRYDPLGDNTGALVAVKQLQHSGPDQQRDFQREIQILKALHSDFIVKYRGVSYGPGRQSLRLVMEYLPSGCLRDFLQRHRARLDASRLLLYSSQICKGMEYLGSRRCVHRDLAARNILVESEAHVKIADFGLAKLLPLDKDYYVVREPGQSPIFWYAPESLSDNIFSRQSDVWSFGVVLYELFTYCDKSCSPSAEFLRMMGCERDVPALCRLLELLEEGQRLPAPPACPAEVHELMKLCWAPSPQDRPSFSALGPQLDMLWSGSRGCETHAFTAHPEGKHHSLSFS

[7] = Inhibition of binding of beta-FGF to heparin pre-incubated with beta-FGF prior to application to plate for 45 mins by ELISA
[8] = Inhibition of binding of vascular endothelial growth factor to heparin pre-incubated with VEGF prior to application to plates for 45 mins by ELISA
MCF7 [9] = experiment: Cytotoxic activity against human MCF7 cells; format: functional, cell-based

Chain of Ribosomal protein S6 kinase beta-1 (P23443 whole entry T412E, the tested form may be a part): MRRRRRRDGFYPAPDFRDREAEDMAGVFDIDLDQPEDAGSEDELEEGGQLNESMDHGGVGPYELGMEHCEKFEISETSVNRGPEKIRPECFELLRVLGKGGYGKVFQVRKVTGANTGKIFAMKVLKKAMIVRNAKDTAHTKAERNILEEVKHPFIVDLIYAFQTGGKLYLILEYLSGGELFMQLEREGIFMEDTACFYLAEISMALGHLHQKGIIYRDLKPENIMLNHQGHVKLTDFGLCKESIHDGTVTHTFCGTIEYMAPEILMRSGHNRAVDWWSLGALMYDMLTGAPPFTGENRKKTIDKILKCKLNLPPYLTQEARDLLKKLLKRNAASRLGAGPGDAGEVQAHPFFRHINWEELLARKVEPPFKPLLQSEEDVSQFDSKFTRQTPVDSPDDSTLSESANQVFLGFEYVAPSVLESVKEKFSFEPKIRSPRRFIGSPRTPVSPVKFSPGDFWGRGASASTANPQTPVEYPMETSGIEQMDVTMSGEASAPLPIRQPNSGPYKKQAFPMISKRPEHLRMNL
Chain of Epidermal growth factor receptor (P00533 whole entry): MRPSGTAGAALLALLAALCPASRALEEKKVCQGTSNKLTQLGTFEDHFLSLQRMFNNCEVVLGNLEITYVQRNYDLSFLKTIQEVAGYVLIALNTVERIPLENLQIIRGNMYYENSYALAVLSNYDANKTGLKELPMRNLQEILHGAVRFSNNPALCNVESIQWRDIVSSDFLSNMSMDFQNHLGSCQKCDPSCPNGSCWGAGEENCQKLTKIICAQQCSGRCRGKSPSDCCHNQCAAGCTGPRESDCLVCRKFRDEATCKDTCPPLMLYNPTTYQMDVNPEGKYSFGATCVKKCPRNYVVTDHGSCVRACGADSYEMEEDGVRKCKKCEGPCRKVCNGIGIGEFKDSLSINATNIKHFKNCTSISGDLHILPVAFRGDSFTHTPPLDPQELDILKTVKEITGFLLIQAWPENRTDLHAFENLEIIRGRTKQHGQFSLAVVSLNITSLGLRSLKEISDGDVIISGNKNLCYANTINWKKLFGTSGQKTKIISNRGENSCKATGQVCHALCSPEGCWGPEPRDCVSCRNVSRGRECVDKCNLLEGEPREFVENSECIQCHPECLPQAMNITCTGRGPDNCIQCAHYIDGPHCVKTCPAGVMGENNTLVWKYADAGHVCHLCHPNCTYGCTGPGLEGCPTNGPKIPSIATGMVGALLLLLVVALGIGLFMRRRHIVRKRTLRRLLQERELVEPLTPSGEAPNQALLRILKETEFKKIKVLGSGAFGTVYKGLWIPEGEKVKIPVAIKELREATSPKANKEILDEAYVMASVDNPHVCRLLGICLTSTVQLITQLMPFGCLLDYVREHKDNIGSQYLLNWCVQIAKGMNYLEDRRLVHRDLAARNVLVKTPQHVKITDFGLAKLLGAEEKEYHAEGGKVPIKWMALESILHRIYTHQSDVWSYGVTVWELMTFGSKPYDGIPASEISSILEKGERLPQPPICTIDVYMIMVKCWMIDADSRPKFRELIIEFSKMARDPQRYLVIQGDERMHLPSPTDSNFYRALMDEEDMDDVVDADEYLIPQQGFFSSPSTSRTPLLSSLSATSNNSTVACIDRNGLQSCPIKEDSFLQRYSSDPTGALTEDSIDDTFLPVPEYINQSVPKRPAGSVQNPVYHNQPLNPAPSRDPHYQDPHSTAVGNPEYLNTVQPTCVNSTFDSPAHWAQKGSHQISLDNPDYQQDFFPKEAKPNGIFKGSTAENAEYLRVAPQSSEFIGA

Row | Compound | pIC50 [1] | GI50 (Homo sapiens) [µM] | also measured
1 | N#Cc1cc([C@@H](CN2CCC2)Nc2nnnc3c(C(N)=O)cccc23)ccc1Cl | > 7.60 | – | –
2 | NC(=O)c1cccc2c(NCc3ccccn3)nnnc12 | < 6.00 | – | –
3 | CC1(C)Cc2c(c(N3CCOCC3)nc3sc4c(Cl)nnnc4c23)CO1 | – | – | MTD [2]: 2000 mg/kg
4 | CC1(C)Cc2c(c(N3CCOCC3)nc3sc4c(NNc5ccccc5)nnnc4c23)CO1 | – | – | MTD [2]: 2000 mg/kg
5 | COc1cc2c(Nc3ccc(F)c(Cl)c3)nnnc2cc1OCCCCl | – | 7.98 | pIC50 (B16-F10): 5.16 to 5.42; pIC50 (PC-3): 5.16 to 5.42; pIC50 [3]: 5.16 to 5.42; pIC50 (DU-145): 5.16 to 5.42
6 | CC1(C)Cc2c(c(N3CCOCC3)nc3sc4c(N5CCNCC5)nnnc4c23)CO1 | – | – | MTD [2]: 2000 mg/kg
7 | NC(=O)c1cccc2c(NCc3cccnc3)nnnc12 | < 6.00 | – | –
8 | NC(=O)c1cccc2c(NCc3ccc(C(F)(F)F)cc3)nnnc12 | 7.00 to 7.60 | – | –
9 | NC(=O)c1cccc2c(NCc3ccc(Cl)c(C(F)(F)F)c3)nnnc12 | > 7.60 | – | –
10 | COc1cc2c(Nc3ccc(C)cc3)nnnc2cc1OCCCCl | – | 17.1 | –
11 | CCCCCOc1cc2nnnc(Nc3cccc(OC(F)(F)F)c3)c2cc1OC | – | 42.6 | –
12 | CCCCCOc1cc2nnnc(Nc3ccc(OC(F)(F)F)cc3)c2cc1OC | – | 38 | –
13 | CN(C)C[C@@H](Nc1nnnc2c(C(N)=O)cccc12)c1ccc(Cl)c(C(F)(F)F)c1 | > 7.60 | – | –
14 | CC(C)CCNc1nnnc2c1sc1nc(N3CCOCC3)c3c(c12)CCCC3 | – | – | MTD [2]: 2000 mg/kg
15 | COc1ccc(N(C)c2nnnc3ccccc23)cc1 | – | – | pIC50 (MDA-MB-435): 7.30 to 8.15; EC50 (Caspase): 0.016 µM; pIC50 (T47D): 7.30 to 8.15; pIC50 (HT-29): 7.30 to 8.15; pIC50 (NCI-H1299): 7.30 to 8.15; pIC50 (MX1): 7.30 to 8.15
16 | COc1cc2c(Nc3cccc(C(F)(F)F)c3)nnnc2cc1OCCCCl | – | 21.4 | –
17 | CCOc1cc2nnnc(Nc3ccc(Cl)cc3)c2cc1OC | – | 26.5 | –
18 | CN(C)C[C@@H](Nc1nnnc2c(C(N)=O)cccc12)c1ccc(Cl)c(Cl)c1 | > 7.60 | – | –
19 | COc1cc2c(Nc3ccccc3)nnnc2cc1OCCCCl | – | > 80 | –

Row | Compound | pIC50 [1] | GI50 (Homo sapiens) [µM] | also measured
20 | NC(=O)c1cccc2c(N[C@H](CN3CCC3)c3ccc(Cl)c(Cl)c3)nnnc12 | > 7.60 | – | –
21 | COc1cc2c(Nc3ccc(OC(F)(F)F)cc3)nnnc2cc1OCCCCl | – | 23.2 | –
22 | COc1cc2c(Nc3cc(Cl)cc(Cl)c3)nnnc2cc1OCCCCl | – | 28.8 | –
23 | Clc1nnnc2c1sc1nc(N3CCOCC3)c3c(c12)CCCC3 | – | – | MTD [2]: 2000 mg/kg
24 | Oc1cccc(Nc2nnnc3sc4c(c23)CCC4)c1 | – | – | pIC50 [4]: 4.28; viability at 25 µg/mL (MCF7 [5]): 12%
25 | COc1cc([C@@H](CN2CCC2)Nc2nnnc3c(C(N)=O)cccc23)ccc1Cl | > 7.60 | – | –
26 | NC(=O)c1cccc2c(N[C@H](CN3CCC3)c3ccc(F)c(C(F)(F)F)c3)nnnc12 | > 7.60 | – | –
27 | NC(=O)c1c[nH]c2nnnc(O)c12 | – | – | pIC50 [6]: > 5.00
28 | CN(C)C[C@@H](Nc1nnnc2c(C(N)=O)cccc12)c1ccc(Cl)c(C#N)c1 | 7.00 to 7.60 | – | –
29 | Oc1ccc(Nc2nnnc3sc4c(c23)CCC4)cc1 | – | – | pIC50 [4]: 4.41; viability at 25 µg/mL (MCF7 [5]): 13%
30 | NC(=O)c1cccc2c(NCc3ccc(Cl)c(Cl)c3)nnnc12 | > 7.60 | – | –
31 | NC(=O)c1cccc2c(NCc3cccc(C(F)(F)F)c3)nnnc12 | 6.30 to 7.00 | – | –
32 | COc1cc2c(Nc3ccc(F)c(C(F)(F)F)c3)nnnc2cc1OCCCCl | – | 15.2 | –
33 | CCN(CC)CCNc1nnnc2c1sc1nc(N3CCOCC3)c3c(c12)CC(C)(C)OC3 | – | – | MTD [2]: 2000 mg/kg
34 | NNc1nnnc2c1sc1nc(N3CCOCC3)c3c(c12)CCCC3 | – | – | MTD [2]: 2000 mg/kg
35 | COc1cc2c(Nc3cccc(OC(F)(F)F)c3)nnnc2cc1OCCCCl | – | 24.9 | –
36 | C=CCNc1nnnc2c1sc1nc(N3CCOCC3)c3c(c12)CC(C)(C)OC3 | – | – | MTD [2]: 2000 mg/kg
37 | c1ccc(NNc2nnnc3c2sc2nc(N4CCOCC4)c4c(c23)CCCC4)cc1 | – | – | MTD [2]: 2000 mg/kg
38 | NC(=O)c1cccc2c(NCc3ccccc3)nnnc12 | 6.00 to 6.30 | – | –

Row | Compound | pIC50 [1] | GI50 (Homo sapiens) [µM] | also measured
39 | COc1cc2c(Nc3ccc(Cl)cc3)nnnc2cc1OCCCCl | – | 18.6 | –
40 | CC1(C)Cc2c(c(N3CCOCC3)nc3sc4c(NN)nnnc4c23)CO1 | – | – | MTD [2]: 2000 mg/kg
41 | COc1cc2c(Nc3ccc(Cl)c(Cl)c3)nnnc2cc1OCCCCl | – | 11 | –
42 | CCCCCCNc1nnnc2c1sc1nc(N3CCOCC3)c3c(c12)CC(C)(C)OC3 | – | – | MTD [2]: 2000 mg/kg
43 | NC(=O)c1cccc2c(NCc3cccc(F)c3)nnnc12 | 6.00 to 6.30 | – | –
44 | CC(C)(CC(=O)On1nnc2ccccc2c1=O)CN1C(=O)c2cc3oc(-c4ccc(Cl)cc4)cc3n2C1=S | – | – | pIC50 [7]: 6.80; pIC50 [8]: 6.59
45 | CCOc1cc2nnnc(Nc3ccc(C)cc3)c2cc1OC | – | 42.6 | –
46 | CC(C)CCNc1nnnc2c1sc1nc(N3CCOCC3)c3c(c12)CC(C)(C)OC3 | – | – | MTD [2]: 2000 mg/kg
47 | COc1cc([C@@H](CN(C)C)Nc2nnnc3c(C(N)=O)cccc23)ccc1Cl | 7.00 to 7.60 | – | –
48 | NC(=O)c1cccc2c(N[C@H](CN3CCC3)c3ccc(Cl)c(C(F)(F)F)c3)nnnc12 | > 7.60 | – | –
49 | COc1cc2c(Nc3ccc(F)cc3)nnnc2cc1OCCCCl | – | 23.1 | –
50 | CC1(C)Cc2c(c(N3CCOCC3)nc3sc4c(N(Cc5ccccc5)Cc5ccccc5)nnnc4c23)CO1 | – | – | MTD [2]: 2000 mg/kg
51 | Clc1ccc(Nc2nnnc3ccccc23)cc1 | – | > 80 | –
52 | c1coc(CNc2nnnc3c2sc2nc(N4CCOCC4)c4c(c23)CCCC4)c1 | – | – | MTD [2]: 2000 mg/kg
53 | CCOc1cc2nnnc(Nc3ccc(F)c(Cl)c3)c2cc1OC | – | 38.8 | –
54 | O=c1[nH]nnc2c1C1C(=Cc3ccccc31)S2 (stereo not drawn) | – | – | IC50 (MCF7 [9]): 6 µg/mL (≈ 24.9 µM)
55 | CCCCCOc1cc2nnnc(Nc3ccc(Cl)cc3)c2cc1OC | – | 25.4 | –
56 | NC(=O)c1cccc2c(NCc3cc(C(F)(F)F)ccn3)nnnc12 | < 6.00 | – | –
